In patent US10426745B2, “Polymeric metformin and its use as a therapeutic agent and as a delivery vehicle” (The University of North Carolina at Chapel Hill, priority 2015, dated 2019):

Key:
[1] = system: luciferase plasmid; test: pDNA transfection efficiency with luciferase plasmid; assay type: cell-based
Procedure: FIG. 10 depicts transfection efficiency of (A) L-PEI and L-PolyMet and (B) B-PEI and B-PolyMet at the indicated N/P ratios. Luciferase pDNA concentration was 0.5 μg/well in 96-well plate. Data are mean±S.D. (n=6 per group).

[2] = system: H460 tumor; test: H460 xenograft tumor growth / antitumor activity; assay type: in vivo, mice; conditions: vs PBS and LPH-PEI groups; IV 0.4 mg/kg body weight every other day
Procedure: FIG. 6A depicts Metformin and PolyMet inhibit H460 tumor growth. PBS, metformin, LPH-PEI and LPH-PolyMet were administered intravenously every other day, and mice were sacrificed 24 hours after the final injection. In FIG. 6A, tumor volumes were measured every day; FIG. 6B depicts tumor weights were measured on day after final injection and compared with body weights to determine percentage of tumor burden; FIG. 6C depicts visual observations of the H460 tumor sizes in each treatment group at the end time point; (n=5 per group).
Female nude female mice and female CD1 mice that were 6-8 weeks old were used in the studies. Female nude mice were purchased from National Cancer Institute (Bethesda, Md.) and bred by the Division of Laboratory Animal Medicine (DLAM) at University of North Carolina at Chapel Hill. CD1 mice were purchased from Charles River Laboratories (Morrisville, N.C.). To establish the xenograft models, 5×10^6 cells in 100 μL of PBS were injected subcutaneously into the right flank of the mice.
Human NSCLC cells xenografts were used as previously described. H460 human lung cancer cells ([…]) were subcutaneously injected into the right flanks of female athymic nu/nu mice. […] Animal weight and tumor volumes were measured every other day. […]

[3] = system: AMPKα; test: Western blot of tumor proteins: AMPKα phosphorylation; assay type: in vivo, mice; conditions: H460 tumors, IV every other day
Procedure: (§1) FIG. 7A depicts Metformin and PolyMet inhibition of tumor growth by activation of AMPK, inhibiting the mTOR pathway; FIG. 7B depicts inducing autophagy and apoptosis mechanisms. Mice bearing H460 tumors were given IV injections every other day and analysis of tumor proteins was prepared 24 h after the second injection. Cells under autophagy were stained by LC3b antibody (red) and apoptosis of cells was indicated by TUNEL assay (green). Nuclei are stained blue. The percentage denotes the average percentage of LC3b positive cells (red) and the percentage of TUNEL positive cells (green), respectively. Five randomly selected microscopic fields were quantitatively analyzed on ImageJ. Data are mean±S.D. (n=5 per group).
(§2) H460 tumor-bearing mice were given IV injections every second day and mice were sacrificed 24 hours after the third injection. Protein per lane was separated by 4%-12% SDS-PAGE electrophoresis (Invitrogen) before being transferred to polyvinylidene difluoride (PVDF) membranes (Bio-Rad). The membranes were blocked for 1 h with 5% non fat dry milk (Bio-Rad) at room temperature and then incubated with antibodies overnight at 4° C. The membranes were washed 3 times and then incubated with a secondary antibody (1:4,000 dilution; Cell signal Inc.) at room temperature for 1 h. […]

[4] = system: mTOR; test: Western blot of tumor proteins: p-mTOR/mTOR; assay type: in vivo, mice; conditions: H460 tumors; compared to the PBS and LPH-PEI
Procedure: as §1, §2

[5] = system: LC3b; test: LC3b immunostaining of H460 tumors (autophagy); assay type: in vivo, mice; conditions: vs other groups
Procedure: as §1

[6] = system: H460 tumor cells; test: TUNEL assay of in vivo tumor cell apoptosis; set-up: species or system mice; conditions: H460 tumors after IV treatment
Procedure: as §1
FIG. 8 depicts in vitro and in vivo gene silencing effect of different LPH nanoparticles. […] Luciferase activities of cells were analyzed and normalized by protein. *p<0.05, **p<0.01, ***p<0.001. […] H460 tumor-bearing mice were injected intravenously every other day; FIG. 8B depicts tumor BCL2 protein levels after 2 injections were measured by western blot analysis; FIG. 8C depicts tumor volumes were measured every day; FIG. 8D depicts TUNEL staining in H460 tumor cells after treatment with siRNA in different formulations in vivo. […] Five randomly selected microscopic fields were quantitatively analyzed on ImageJ. […]

protamine
transfection efficiency [1]: did not help

CN(C)C(=N)NC(=N)N [Metformin, N,N-dimethylimidodicarbonimidic diamide]
inhibition of cancer progression (tumor growth) [2]: significant inhibition | phosphorylation level of AMPKα relative to PBS group [3]: about 9 fold | reduction in p-mTOR/mTOR levels [4]: 2.3 fold | LC3b-associated red fluorescence (autophagy) [5]: higher | percent of apoptotic (TUNEL-positive) cells [6]: 18.8%
